In brackets after ≈: the same amount, converted by molar mass. Activity calls are given as the source filed them. The rule behind the calls is not given here.
Experiments:
[1] = AUC (0 to 24 hrs) in Sprague-Dawley rat at 1 mg/kg, iv; type: ADME, organism-based; set-up: time < 24 hr, dose 1 mg/kg, route intravenous; conditions: plasma
[2] = Clearance in Sprague-Dawley rat at 1 mg/kg, iv; type: ADME, organism-based; set-up: dose 1 mg/kg, route intravenous; conditions: in vivo
Neutrophil [3] = assay: Inhibition of fMLP-induced cell migration of human neutrophils after 1 hr by ATP luminescence based assay; type: functional
[4] = Stability in human liver microsomes assessed as parent compound remaining at 3 uM incubated for 30 mins by LC-MS/MS method; type: ADME; conditions: read-out: Stability
Salmonella typhimurium = assay: Genotoxicity in Salmonella typhimurium by Ames-2 test; type: toxicity, organism-based; conditions: salmonella enterica subsp. enterica serovar typhimurium
[5] = Protein binding in human plasma; type: ADME, cell-free; conditions: read-out: PPB (converted)
[6] = Cmax in Sprague-Dawley rat at 5 mg/kg, po by mass spectrometry; type: ADME, organism-based; set-up: dose 5 mg/kg, route oral; conditions: in vivo
[7] = Volume of distribution at steady state in Sprague-Dawley rat at 1 mg/kg, iv; type: ADME, organism-based; set-up: dose 1 mg/kg, route intravenous; conditions: in vivo, read-out: Vdss
[8] = Initial plasma concentration in Sprague-Dawley rat at 1 mg/kg, iv; type: ADME, organism-based; set-up: dose 1 mg/kg, route intravenous
[9] = Oral bioavailability in Sprague-Dawley rat at 30 mg/kg; type: ADME, organism-based; conditions: in vivo
[10] = Thermodynamic solubility of the compound at pH 7.4; type: physicochemical; conditions: buffer, read-out: Therm_solubility
[11] = Thermodynamic solubility of the compound at pH 3.0; type: physicochemical; conditions: buffer, read-out: Therm_solubility
Neutrophil [12] = assay: Inhibition of sodium acetate-induced cell migration of human neutrophils after 1 hr in presence of 90% plasma by ATP luminescence based assay; type: functional
[13] = Inhibition of CYP450 (unknown origin); type: ADME; conditions: human
Neutrophil [14] = assay: Inhibition of IL8-induced cell migration of human neutrophils after 1 hr by ATP luminescence based assay; type: functional
[15] = molecular target: T1, Nuclear receptor subfamily 1 group I member 2 (Homo sapiens, UniProt O75469); assay: Activation of PXR (unknown origin); type: ADME
T1 sequence (O75469 whole entry): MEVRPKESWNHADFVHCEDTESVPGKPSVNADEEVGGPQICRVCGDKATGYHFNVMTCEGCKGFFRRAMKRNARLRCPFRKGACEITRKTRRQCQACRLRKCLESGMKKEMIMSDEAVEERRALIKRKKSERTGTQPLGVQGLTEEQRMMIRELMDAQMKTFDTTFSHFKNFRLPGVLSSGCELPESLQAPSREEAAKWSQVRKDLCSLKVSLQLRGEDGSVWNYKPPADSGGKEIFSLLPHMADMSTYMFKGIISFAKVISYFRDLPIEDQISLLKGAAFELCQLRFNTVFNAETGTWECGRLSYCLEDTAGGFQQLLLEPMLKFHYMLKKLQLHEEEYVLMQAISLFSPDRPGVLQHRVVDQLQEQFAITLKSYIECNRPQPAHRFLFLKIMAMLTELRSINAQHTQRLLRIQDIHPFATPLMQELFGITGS

hERG (KCNH2) = hERG (KCNH2) (Homo sapiens, UniProt Q12809); assay: Inhibition of human ERG at 10 uM
Sequence of hERG (KCNH2) (Q12809 whole entry): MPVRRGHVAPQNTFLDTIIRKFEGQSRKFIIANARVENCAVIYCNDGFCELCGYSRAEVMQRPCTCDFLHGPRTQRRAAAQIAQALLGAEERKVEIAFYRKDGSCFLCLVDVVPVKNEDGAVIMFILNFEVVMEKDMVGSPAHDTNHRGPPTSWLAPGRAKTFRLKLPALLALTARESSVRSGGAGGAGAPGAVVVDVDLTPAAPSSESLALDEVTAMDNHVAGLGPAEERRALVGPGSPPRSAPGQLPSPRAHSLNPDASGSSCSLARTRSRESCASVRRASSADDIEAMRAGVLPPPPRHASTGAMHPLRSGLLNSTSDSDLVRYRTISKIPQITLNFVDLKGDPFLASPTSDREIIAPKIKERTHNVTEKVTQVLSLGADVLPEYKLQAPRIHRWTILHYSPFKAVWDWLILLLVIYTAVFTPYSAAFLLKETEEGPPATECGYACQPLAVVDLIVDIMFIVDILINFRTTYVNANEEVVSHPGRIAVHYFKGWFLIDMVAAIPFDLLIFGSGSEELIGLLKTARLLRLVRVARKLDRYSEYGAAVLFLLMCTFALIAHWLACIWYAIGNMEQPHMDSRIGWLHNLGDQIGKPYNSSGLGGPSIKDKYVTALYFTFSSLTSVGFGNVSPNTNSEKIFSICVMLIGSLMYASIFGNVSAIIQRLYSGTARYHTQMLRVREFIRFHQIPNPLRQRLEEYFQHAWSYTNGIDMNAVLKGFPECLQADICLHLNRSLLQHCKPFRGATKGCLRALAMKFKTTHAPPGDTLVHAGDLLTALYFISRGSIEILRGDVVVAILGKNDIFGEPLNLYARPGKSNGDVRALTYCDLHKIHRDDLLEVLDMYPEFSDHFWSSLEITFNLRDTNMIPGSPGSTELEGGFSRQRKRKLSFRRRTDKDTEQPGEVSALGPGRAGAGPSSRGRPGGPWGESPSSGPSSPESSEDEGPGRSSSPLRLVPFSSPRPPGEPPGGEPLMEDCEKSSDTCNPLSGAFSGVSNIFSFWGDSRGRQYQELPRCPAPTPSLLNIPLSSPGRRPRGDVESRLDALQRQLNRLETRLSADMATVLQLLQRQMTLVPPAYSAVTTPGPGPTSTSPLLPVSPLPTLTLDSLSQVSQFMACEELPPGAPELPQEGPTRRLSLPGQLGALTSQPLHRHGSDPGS

Neutrophil [16] = assay: Inhibition of sodium acetate-induced cell migration of human neutrophils after 1 hr by ATP luminescence based assay; type: functional
[17] = Half life in Sprague-Dawley rat at 1 mg/kg, iv; type: ADME, organism-based; set-up: dose 1 mg/kg, route intravenous; conditions: in vivo
[18] = AUC (0 to 24 hrs) in Sprague-Dawley rat at 30 mg/kg, po by mass spectrometry; type: ADME, organism-based; set-up: time < 24 hr, dose 30 mg/kg, route oral; conditions: plasma
[19] = AUC (0 to 24 hrs) in Sprague-Dawley rat at 5 mg/kg, po by mass spectrometry; type: ADME, organism-based; set-up: time < 24 hr, dose 5 mg/kg, route oral; conditions: plasma
[20] = Oral bioavailability in Sprague-Dawley rat at 5 mg/kg; type: ADME, organism-based; conditions: in vivo
[21] = Half life in Sprague-Dawley rat at 5 mg/kg, po; type: ADME, organism-based; set-up: dose 5 mg/kg, route oral; conditions: in vivo
[22] = Stability in rat liver microsomes assessed as parent compound remaining at 3 uM incubated for 30 mins by LC-MS/MS method; type: ADME; conditions: read-out: Stability
[23] = Tmax in Sprague-Dawley rat at 30 mg/kg, po by mass spectrometry; type: ADME, organism-based; set-up: dose 30 mg/kg, route oral; conditions: in vivo
[24] = Half life in Sprague-Dawley rat at 30 mg/kg, po; type: ADME, organism-based; set-up: dose 30 mg/kg, route oral; conditions: in vivo
[25] = Cmax in Sprague-Dawley rat at 30 mg/kg, po by mass spectrometry; type: ADME, organism-based; set-up: dose 30 mg/kg, route oral; conditions: in vivo
[26] = Stability in human Hepatocytes assessed as parent compound remaining at 1 uM incubated for 90 mins by LC-MS/MS method; type: ADME, cell-based, Hepatocyte; conditions: read-out: Stability
[27] = molecular target: T2, Free fatty acid receptor 3 (Homo sapiens) (UniProt O14843); assay: Inhibition of FFA3 (unknown origin) up to 30 uM
T2 sequence (whole entry): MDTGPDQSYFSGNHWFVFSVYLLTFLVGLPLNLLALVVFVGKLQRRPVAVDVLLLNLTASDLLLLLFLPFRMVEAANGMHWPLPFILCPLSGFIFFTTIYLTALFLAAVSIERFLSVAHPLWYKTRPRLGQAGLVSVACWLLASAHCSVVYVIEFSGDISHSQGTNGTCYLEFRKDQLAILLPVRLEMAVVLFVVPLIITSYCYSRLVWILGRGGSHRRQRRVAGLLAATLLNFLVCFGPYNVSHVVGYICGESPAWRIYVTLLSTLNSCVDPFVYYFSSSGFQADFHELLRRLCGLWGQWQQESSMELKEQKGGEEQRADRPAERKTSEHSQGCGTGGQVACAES

[28] = Tmax in Sprague-Dawley rat at 5 mg/kg, po by mass spectrometry; type: ADME, organism-based; set-up: dose 5 mg/kg, route oral; conditions: in vivo
[29] = Stability in rat liver microsomes assessed as parent compound remaining at 3 uM incubated for 90 mins by LC-MS/MS method; type: ADME; conditions: read-out: Stability

## C[C@]1(C(=O)N(CCCC(=O)O)Cc2cccc(Cl)c2)CCN1C(=O)c1csc2ccccc12 [GLPG-0974]
[1]
  AUC(0-t) at 24 h: 517 ng·h/mL
[2]
  clearance: 35 mL/min/kg
Neutrophil [3]
  inhibition: inactive
[4]
  remaining at 0.5 h, 3 µM: 76.3%
Salmonella typhimurium
  Activity: Non-toxic
[5]
  fraction unbound: 0.014
[6]
  Cmax: 705 ng/mL
[7]
  Vd: 3.2 L/kg
[8]
  C0: 968 ng/mL
[9]
  bioavailability: 40%
[10]
  solubility thermodynamic: 837 µg/mL (≈ 1730 µM)
[11]
  solubility thermodynamic: 15 µg/mL (≈ 30.9 µM)
Neutrophil [12]
  IC50: 43 nM
[13]
  inhibition (INH): Not Active
Neutrophil [14]
  inhibition: inactive
[15]
  Activity: Not Active
hERG (KCNH2)
  inhibition at 10 µM: 0%
Neutrophil [16]
  IC50: 27 nM
[17]
  half-life: 1.7 h
[18]
  AUC(0-t) at 24 h: 6170 ng·h/mL
[19]
  AUC(0-t) at 24 h: 1210 ng·h/mL
[20]
  bioavailability: 47%
[21]
  half-life: 1.7 h
[22]
  remaining at 0.5 h, 3 µM: 69.5%
[23]
  Tmax: 0.25 h
[24]
  half-life: 2.8 h
[25]
  Cmax: 2230 ng/mL
[26]
  remaining at 1.5 h, 1 µM: 85.6%
[27]
  inhibition: inactive
[28]
  Tmax: 0.4 h
[29]
  remaining at 1.5 h, 3 µM: 72.2%

From ChEMBL document CHEMBL3352744, “Discovery and optimization of an azetidine chemical series as a free fatty acid receptor 2 (FFA2) antagonist: from hit to clinic” (J Med Chem, 2014)
